Measurements: a melting point compilation (Tetko et al.; mined from patent text by program, amines drawn as free bases though some values may be those of a salt)

| Structure (SMILES) | melting point |
| --- | --- |
| CCCCCCCC/C=C\CCCCCCCC(=O)N[C@H]1CCCNC(=O)C1 | 66 to 67 °C |
| CCCCCCCCCCCC(=O)NC(=O)N1CC1C#N (configuration not stated) | 140 to 143 °C |
| CCCCCCCCCCCCC#CCO | 36 to 37 °C |
| Cc1oc(-c2ccccc2)nc1COc1ccc(OCc2ncccc2CC#N)cc1 | 134 to 135 °C |
| CC(=O)SCC(Cc1ccccc1)C(=O)Nc1cccc(C(=O)NCC(=O)OCc2ccccc2)c1 (configuration not stated) | 122 to 123 °C |
| C#CC(OC(c1ccccc1)(c1ccccc1)c1ccccc1)C(C)(C)CCCC (configuration not stated) | 75 to 77 °C |
| O=C1CC2(CCCC2)CC(=O)N1CCCCN1CCN(c2noc3cc(Cl)ccc23)CC1 | 128 °C |
| O=Cc1c(OCc2ccccc2)cccc1C1OCCCO1 | 85 to 87 °C |
| CC1(C)C(=O)N(c2ccc([N+](=O)[O-])c(C(F)(F)F)c2)C(=O)N1CC=CCN1C(=O)N(c2ccc([N+](=O)[O-])c(C(F)(F)F)c2)C(=O)C1(C)C | 191 to 193 °C |
| O=C(O)/C=C/c1ccc(C(c2cc(F)ccc2F)S(=O)(=O)c2ccc(Cl)cc2)nc1 (configuration not stated) | 236 to 238 °C |
| CCCn1c(=O)c2[nH]c(-c3ccc(C#N)cc3)nc2n(C)c1=O | 314 to 318 °C |
| Cn1c(=O)oc2cc3c(cc21)C1(CO3)C(=O)N(CC2CCCO2)c2ccccc21 (configuration not stated) | > 250 °C |
| CC(C)(C)CCOc1c(-c2ccc(S(C)(=O)=O)cc2)cnn(CC(F)(F)F)c1=O | 83 to 85 °C |
| FC(F)(F)c1ccc(COc2ccnc(CCl)c2)cc1 | 133 to 135 °C |
| FC(F)(F)c1ccc(Cl)cn1 | 36 to 37 °C |
| CSc1ccc(-c2cnc3ccc(-c4nnc(C)o4)cn23)cc1 | 180 to 181 °C |
| CC12CC(F)C3C(CCC4=CC(=O)CCC43C)C1CCC2=O (configuration not stated) | 162 to 164 °C |
| C=CCOC(=O)[C@@H]1CCC[C@@H]1C(N)=O (relative stereo) | 35 °C |
| NC(=O)c1ccc2nccn2c1 | 202 to 204 °C |
| CC(C#N)(C(=O)NC1CCCCC1)c1ccccc1 (configuration not stated) | 76 to 78 °C |
| Cc1nnc(Sc2ncnc3c(C)csc23)s1 | 144 to 147 °C |
| CCc1c2c(nn1-c1ccccc1)c(Cl)nc1ccccc12 | 207 to 209 °C |

| Structure (SMILES) | melting point |
| --- | --- |
| O=S(=O)(CC(F)(F)F)Oc1cccc(OS(=O)(=O)CC(F)(F)F)c1OS(=O)(=O)CC(F)(F)F | 73.5 to 75 °C |
| O=S(=O)(c1cccc(-c2cc(-c3nc(-c4ccc(C(F)(F)F)cc4)cc(C(F)(F)F)n3)ccn2)c1)N(CCO)CCO | 186 °C |
| CC(=O)OC1CC2=CCC3C4CCC(C(C)CO)C4(C)CCC3C2(C)C(O)C1 (configuration not stated) | 121 °C |
| O=C1c2c(Cl)cccc2-n2cnc(-c3noc(CCl)n3)c2[C@@H]2CCCN12 | 184 to 186 °C |
| CN1C(=O)CC[C@]2(C)c3ccc(Sc4nc5c(OC(F)(F)F)cccc5s4)cc3CC[C@@H]12 | 168 to 173 °C |
| CC(C(N)=O)N1CCN(c2ccccn2)CC1 (configuration not stated) | 130 to 132 °C |
| O=C1NCSc2ccsc21 | 136 to 138 °C |
| COc1cccc2c(=O)c3c(O)cc(OCC4CS4)cc3oc12 (configuration not stated) | 187 °C |
| c1ccc(-c2[nH]c3cc4c(cc3c2-c2ccccc2)OCO4)cc1 | 187 to 188 °C |
| CC1(C)CC(C)(C)CC(CCCC(=O)O)(NC(=O)CCl)C1 | 140 to 141 °C |
| CN(Sc1nc2ccccc2s1)C(=O)Oc1cccc2c1OC(C)(C)C2 | 92 to 93 °C |
| Cc1ccccc1N1CCN(CCC2CN(C)C(=O)O2)CC1 (configuration not stated) | 55 to 57 °C |
| O=C1c2ccc([N+](=O)[O-])cc2S(=O)(=O)N1CSc1ccccc1 | 161 to 163 °C |
| Clc1ccc(/C=C/C2=CCN(Cc3ccccc3)CC2)cc1 | 123 to 125 °C |
| CCCCOC(=O)[C@H](Cc1ccc(O)cc1)NC(=O)C1(NC(=O)[C@@H](S)C(C)C)CCCC1 | 182 to 183 °C |
| CS(=O)(=O)c1ccc(-c2[nH]c3ccc(Cl)cc3c2-c2ccc(Cl)cc2)cc1 | 281 to 283 °C |
| Cc1ccc2nc(-c3ccc(C#N)cc3)cn2c1 | 225 to 226 °C |
| Cc1c(/C=C/C(=O)c2c[nH]c3ccccc23)ncn1C(c1ccccc1)(c1ccccc1)c1ccccc1 | 240 to 242 °C |
| OCC1(c2ccc(Cl)cc2)CCN(CCC(c2ccccc2)(c2ccccc2)c2ccccc2)CC1 | 156 to 158 °C |
| Nc1ccn2nc(-c3cccc(F)c3)nc2c1 | 200 to 203 °C |
| O=C(NCCCCC1CCSS1)N1CCCC1 (configuration not stated) | 91 to 93 °C |
| O=c1c2ccccc2[nH]c2c(OCCCCN(CCO)CCO)cccc12 | 124 to 126 °C |

Results, then the compound that gave them:

| melting point | Structure (SMILES) |
| --- | --- |
| 145 to 146 °C | COC(=O)c1cc(C=O)c(C)nc1C1=NC(C)(C(C)C)C(=O)N1 (configuration not stated) |
| 100 to 101 °C | COc1ccc2c(c1)Cc1cc(CCC(C)=O)ccc1-2 |
| 124 to 125 °C | Cc1cc(C)c2c(c1C)OC(C)(C)C2c1ccc(N(C)C)cc1 (configuration not stated) |
| 105 °C | CCC(Br)C(=O)c1ccc(OC)c(OC(F)F)c1 (configuration not stated) |
| 61 to 62 °C | C=CCCCn1ncc2c(OCC)c(C(=O)OCC)cnc21 |
| 108 °C | Cc1cnc(N2CCN(C(=O)OC(C)(C)C)CC2)c2ccoc12 |
| 108 to 112 °C | CC(=O)Nc1ccccc1C(=O)NCCN1[C@H](C)Cc2ccsc2[C@@H]1C (relative stereo) |
| 173 to 175 °C | COC(Cc1c(Br)cc(Br)c(N)c1Br)C(=O)O (configuration not stated) |
| 106 to 107 °C | Cc1ccccc1-c1cc2cc(O)c(Cl)c(Cl)c2s1 |
| 74 to 75 °C | CCCCCCCCCOc1cc([N+](=O)[O-])ccc1N |
| 139 to 141 °C | CC(=O)C(C)=Cc1cc(O)c(O)c([N+](=O)[O-])c1 |
| 246 to 247 °C | NC1CN(c2cc3c(cc2F)c(=O)c(C(=O)O)cn3C2CC2)C1 |
| 101 to 103 °C | C=CCN1CCCN(c2ccc(Cl)cc2C)C1=S |
| 125 to 126 °C | CCCCC1OC(=O)c2cc(NC(=O)OCC)ccc21 (configuration not stated) |
| 29 to 30 °C | O=[N+]([O-])c1c(Cl)c(Cl)cc2c1OC(F)(F)O2 |
| 111 to 114 °C | O=C(O)CCCCc1cc(O)c(O)cc1[N+](=O)[O-] |
| 184 to 185 °C | CN1CCN(C)CC(OC(=O)c2n[nH]c3ccccc23)C1 |
| 188 to 190 °C | O=C(Nc1ccc(OCCN2CCOCC2)c2ccccc12)c1ccc2snnc2c1 |
| 134 to 137 °C | CCC(C)Nc1nc(Cc2cc(OC)c(OC)c(OC)c2)nc2sc(C#N)c(C)c12 (configuration not stated) |
| 110 to 112 °C | OCc1cc(Br)cc(I)c1 |

| melting point | Structure (SMILES) |
| --- | --- |
| 100 °C | COc1cccc(S(=O)(=O)NC(C)(C)C)c1 |
| 95 to 97 °C | Brc1ccc2scc(Br)c2c1 |
| 118 to 121 °C | COc1ccc(C=O)nc1I |
| 231 to 233 °C | Cc1cnc2c(NC(=O)c3ccccc3[N+](=O)[O-])ccc(C)c2c1-n1ccnc1 |
| 190 °C | Clc1ccc2c(c1)N(c1ncnc3c(Cl)cccc13)CC2 |
| 150 to 152 °C | O=C1C(=O)c2ccc(Br)cc2C2=C1SCC1(CCN(CC(O)COc3ccc(Cl)cc3)CC1)O2 (configuration not stated) |
| 123 to 127 °C | CC(C)OC(=O)N[C@@H](C(=O)O)c1ccccc1 |
| 97 to 98 °C | CCC1(O)CC(=O)OCc2c1ccnc2OC (configuration not stated) |
| 115 to 117 °C | C=CCN1CC(c2ccccc2)=C(OCCN(C)C)C1=O |
| 131 °C | CCCc1nc(S(C)(=O)=O)c(C(=O)O)n1Cc1ccc(-c2ccccc2S(=O)(=O)NC(=O)NCC)cc1 |
| 175 °C | Cc1cc(Cl)nc(Nc2ccccc2[N+](=O)[O-])n1 |
| 160 °C | CC(C)(C)C(=O)OCCc1c(-c2ccccc2)nc(N)n2ncnc12 |
| 54 to 55 °C | COc1ccccc1-c1ccccc1C#N |
| 178 to 179 °C | COC(=O)NC1CCc2sc(Cl)c(C(=O)CCC(=O)O)c2C1 (configuration not stated) |
| 102 to 104 °C | C=C(C)CO[C@H]1[C@H](C)OC(=O)[C@@H](NC(=O)c2nccc(OC)c2OCOC(C)=O)COC(=O)[C@@H]1Cc1ccccc1 |
| 86 to 88 °C | COc1nc2cc([N+](=O)[O-])c(C)c(C(=O)N[C@@H](Cc3ccccc3)C(=O)OC(C)(C)C)c2nc1OC |
| 121 to 122 °C | Cc1c(F)c(F)cc(C(=O)O)c1Cl |
| 78 to 80 °C | CC(Oc1ncn(-c2ccccc2)n1)C(=O)OCc1ccccc1 (configuration not stated) |
| 192 to 195 °C | Nc1cc(Cl)c(S)cc1S(N)(=O)=O |
| 154 °C | O=C(O)CCOCCCc1ccnc(-c2nc(=O)c3ccccc3s2)c1 |

| melting point | Structure (SMILES) |
| --- | --- |
| 183 to 187 °C | CCCCCCCCCCCCS(=O)(=O)Nc1ccccc1C(=O)Nc1cc(Cl)c2c(c1O)CN(C)C(=O)N2 |
| 130 to 132 °C | COc1ccc(OC)c2c1CC1OC1C2 (configuration not stated) |
| 130 to 132 °C | CCNC(=O)CC1CN=C(c2cc3cc(Oc4ccc(COC)nc4)cc(OC)c3[nH]2)S1 (configuration not stated) |
| 159 to 160 °C | CCC(=O)NCCc1ccc(OCc2ccccc2)c(OCc2ccccc2)c1CC |
| 126 to 128 °C | COc1cc(OCc2ccccn2)ccc1/C=C/C(=O)CC(=O)/C=C/c1cc2ccccc2o1 |
| 54 to 56 °C | CC(C)OCCOc1c(-c2ccc(S(N)(=O)=O)cc2)cnn(-c2ccc(F)c(F)c2)c1=O |
| 163 °C | CC(=O)Nc1cc2c(cc1Oc1ccc(F)cc1F)C(=O)CC2c1ccccc1 (configuration not stated) |
| 195 to 196 °C | COC(=O)c1cc(-c2nc(COc3ccc(COc4nn(-c5ccccc5)cc4C=O)cc3OC)c(C)o2)ccc1C |
| 220 to 222 °C | CON(C)Cc1nc2c(N)nc3ccccc3c2n1CC(C)(C)O |
| 291 °C | CCC(=O)Nc1ccc2c(c1)C(=O)c1cc(NC(=O)CC)ccc1C2=O |
| 148 to 150 °C | CCCCOc1c(CNC(=O)OC(C)(C)C)n(CC(C)C)c(=O)c2ccc(-c3nc(C)c(C#N)s3)cc12 |
| 173 to 175 °C | CCCN(Cc1ccc(-c2ccccc2-c2nc(=O)s[nH]2)cc1)c1nc(C)ncc1C(=O)OCC |
| 78 to 79 °C | COC(=O)c1cc(OC)c(Br)cc1Cl |
| 195 to 196 °C | COc1cc2c(cc1OCc1ccccc1)CCN(C(=O)c1cccc(C#N)c1)C2=O |
| 213 to 214 °C | CCn1c2ccccc2c2cc(NC(=O)OC)ncc21 |
| 113 to 114 °C | O=C1NCCc2ccc(OCCCCN3CCC(c4cccc(Cl)c4Cl)CC3)cc21 |
| 143 °C | COc1cc(C)c(C(=O)c2c(C)c(C)cc(C)c2C)c(OC)c1OC |
| 120 to 121 °C | CCOC(=O)C(=O)Oc1cccc(-c2cn3c(n2)sc2ccccc23)c1 |
